How the values were obtained:
MDA-MB-231 = assay: Antiproliferative activity against human MDA-MB-231 cells assessed as inhibition of cell growth incubated for 24 hrs by MTT assay; format: functional, cell-based; conditions: MDA-MB-231, 24 h
MCF7 = assay: Antiproliferative activity against human MCF7 cells assessed as inhibition of cell growth incubated for 24 hrs by MTT assay; format: functional, cell-based; conditions: MCF7, 24 h
Rattus norvegicus = assay: Toxicity in Sprague-Dawley rat inoculated with rat LA7 cells assessed as increase in uterine tissue at 10 mg/kg administered daily for 21 days; format: organism-based; conditions: in vivo, 504 h, time 21 day

Structure (SMILES)	IC50 (MDA-MB-231) [µM]	IC50 (MCF7) [µM]	Activity (Rattus norvegicus)
COc1ccc(C[C@H]2CSc3ccccc3N2Cc2ccc(OCCN3CCCCC3)cc2)cc1	12.2	17.4	–
CC(C)N(CCOc1ccc(C[C@H]2COc3ccccc3N2Cc2ccccc2)cc1)C(C)C	> 50	40.4	–
COc1ccc(C[C@@H]2COc3ccccc3N2Cc2ccc(OCCN3CCCCC3)cc2)cc1	4.87	6.3	–
COc1ccc(C[C@H]2COc3ccccc3N2Cc2ccc(OS(=O)(=O)c3ccc(C)cc3)cc2)cc1	> 50	> 50	–
CCN1c2ccccc2OC[C@@H]1Cc1ccc(O)cc1	43.6	30.4	–
COc1ccc(C[C@H]2COc3ccc(OC)cc3N2Cc2ccc(OCCN3CCCC3)cc2)cc1	3.59	3.34	–
CCN(CC)CCOc1ccc(CN2c3ccccc3SC[C@@H]2Cc2ccc(OC)cc2)cc1	26.7	31.7	–
COc1ccc(C[C@H]2COc3cc(F)c(F)cc3N2Cc2ccc(OCCN3CCCCC3)cc2)cc1	4.86	5.05	–
c1ccc(CN2c3ccccc3OC[C@@H]2Cc2ccc(OCCN3CCCCC3)cc2)cc1	> 50	22	–
COc1ccc(C[C@H]2CSc3ccccc3N2Cc2ccc(OCCN3CCCC3)cc2)cc1	10.9	30.8	–
CCN(CC)CCOc1ccc(CN2c3ccccc3OC[C@@H]2Cc2ccc(OC)cc2)cc1	0.97	6.95	–
Oc1ccc(C[C@H]2COc3ccccc3N2Cc2ccccc2)cc1	32.5	41.6	–
Oc1ccc(C[C@H]2COc3ccccc3N2)cc1	47.4	> 50	–
COc1ccc(C[C@H]2COc3ccccc3N2Cc2ccc(OCCN3CCOCC3)cc2)cc1	31.3	83.6	–
CC/C(=C(\c1ccccc1)c1ccc(OCCN(C)C)cc1)c1ccccc1 [TAMOXIFEN]	–	5.4	Toxic
COc1ccc(C[C@@H]2COc3ccccc3N2Cc2ccc(OCCN3CCCC3)cc2)cc1	6.52	7.03	–
COc1ccc(C[C@H]2COc3ccc(OC)cc3N2Cc2ccc(OCCN3CCCCC3)cc2)cc1	2.64	2.6	–
CCN(CC)CCOCCOc1ccc(CN2c3ccccc3OC[C@@H]2Cc2ccc(OC)cc2)cc1	45	39.1	–
c1ccc(CN2c3ccccc3OC[C@@H]2Cc2ccc(OCCN3CCCC3)cc2)cc1	> 50	21.1	–
CN1c2ccccc2OC[C@@H]1Cc1ccc(OCCN2CCCCC2)cc1	> 50	> 50	–
COc1ccc(C[C@H]2COc3ccc(F)cc3N2Cc2ccc(OCCN3CCCCC3)cc2)cc1	2.92	3.61	–
COc1ccc(C[C@H]2COc3ccccc3N2Cc2ccc(OCCN3CCCCC3)cc2)cc1	11	0.68	–
COc1ccc(C[C@H]2COc3ccccc3N2Cc2ccc(O)cc2)cc1	40.2	24.4	–
COc1ccc(C[C@H]2COc3ccccc3N2Cc2ccc(OCCN3CCCCCC3)cc2)cc1	10.1	18.1	–
COc1ccc(C[C@H]2COc3ccc(C(F)(F)F)cc3N2Cc2ccc(OCCN3CCCCC3)cc2)cc1	6.36	6.1	–
CN1c2ccccc2OC[C@@H]1Cc1ccc(OCCN2CCCC2)cc1	> 50	> 50	–
COc1ccc(C[C@H]2COc3ccccc3N2Cc2ccc(OCCN(C)C)cc2)cc1	11.1	6.75	–
COc1ccc(C[C@H]2COc3ccccc3N2Cc2ccccc2)cc1	> 50	> 50	–

Now from value to compound, other results behind:

IC50 (MDA-MB-231) [µM]	IC50 (MCF7) [µM]	Structure (SMILES)	Activity (Rattus norvegicus)
> 50	> 50	COc1ccc(C[C@H]2COc3ccccc3N2C)cc1	–
40.2	24.4	Oc1ccc(C[C@H]2COc3ccccc3N2Cc2ccc(O)cc2)cc1	–
> 50	> 50	CN(C)CCOc1ccc(C[C@H]2COc3ccccc3N2C)cc1	–
> 50	20.5	CN(C)CCOc1ccc(C[C@H]2COc3ccccc3N2Cc2ccccc2)cc1	–
25.5	28.8	COc1ccc(C[C@H]2CSc3ccccc3N2Cc2ccc(OCCN(C)C)cc2)cc1	–
36.4	> 50	COc1ccc(C[C@H]2COc3ccccc3N2)cc1	–
> 50	> 50	COc1ccc(C[C@H]2COc3ccccc3N2C(=O)c2ccc(N)cc2)cc1	–
0.83	77.6	COc1ccc(C[C@H]2COc3ccccc3N2Cc2ccc(OCCN(C(C)C)C(C)C)cc2)cc1	–
3.22	3.35	COc1ccc(C[C@H]2COc3cc(F)c(F)cc3N2Cc2ccc(OCCN3CCCC3)cc2)cc1	–
> 50	43.7	COc1ccc(C[C@H]2COc3ccccc3N2Cc2ccc(OCCO)cc2)cc1	–
> 50	5.5	COc1ccc(C[C@H]2COc3ccccc3N2Cc2ccc(OCCOCCN(C(C)C)C(C)C)cc2)cc1	–
> 50	> 50	COc1ccc(C[C@H]2CSc3ccccc3N2Cc2ccc(OCCN(C(C)C)C(C)C)cc2)cc1	–
> 50	21.3	COc1ccc(C[C@H]2COc3ccccc3N2Cc2ccc(OCCOCCN3CCCC3)cc2)cc1	–
3.77	–	CC(=O)O[C@H]1C(=O)[C@@]2(C)[C@H]([C@H](OC(=O)c3ccccc3)[C@]3(O)C[C@H](OC(=O)[C@H](O)[C@@H](NC(=O)c4ccccc4)c4ccccc4)C(C)=C1C3(C)C)[C@]1(OC(C)=O)CO[C@@H]1C[C@@H]2O [PACLITAXEL]	–
> 50	45.8	CCN1c2ccccc2OC[C@@H]1Cc1ccc(OCCN2CCCC2)cc1	–
> 50	7.81	COc1ccc(C[C@H]2COc3ccccc3N2Cc2ccc(OCCOCCN3CCCCC3)cc2)cc1	–
3.23	3.34	COc1ccc(C[C@H]2COc3ccc(F)cc3N2Cc2ccc(OCCN3CCCC3)cc2)cc1	–
6.89	6.86	COc1ccc(C[C@H]2COc3ccc(C(F)(F)F)cc3N2Cc2ccc(OCCN3CCCC3)cc2)cc1	–

Reference: ChEMBL document CHEMBL5055666, “Tyrosine-Derived Novel Benzoxazine Active in a Rat Syngenic Mammary Tumor Model of Breast Cancer” (J Med Chem, 2021)
